This is an account of results in US7332474B2, “Peptides and related compounds having thrombopoietic activity” (Amgen Inc., priority 2001, dated 2008).

Test [1] has as its target murine 32D cells transfected with a human mpl receptor (Homo sapiens, UniProt P40238).
Excerpt: The murine 32D cell proliferation assay involves the use of murine 32D cells that have been transfected with a human mpl receptor.
Test [2] concerns the target hu-mpl (Homo sapiens, UniProt P40238). Conditions: ratio of KD of TMP1 to KD of peptide.
For test [3], the target named is T1, c-mpl (Homo sapiens, UniProt P40238).
T1 sequence (P40238 26-635): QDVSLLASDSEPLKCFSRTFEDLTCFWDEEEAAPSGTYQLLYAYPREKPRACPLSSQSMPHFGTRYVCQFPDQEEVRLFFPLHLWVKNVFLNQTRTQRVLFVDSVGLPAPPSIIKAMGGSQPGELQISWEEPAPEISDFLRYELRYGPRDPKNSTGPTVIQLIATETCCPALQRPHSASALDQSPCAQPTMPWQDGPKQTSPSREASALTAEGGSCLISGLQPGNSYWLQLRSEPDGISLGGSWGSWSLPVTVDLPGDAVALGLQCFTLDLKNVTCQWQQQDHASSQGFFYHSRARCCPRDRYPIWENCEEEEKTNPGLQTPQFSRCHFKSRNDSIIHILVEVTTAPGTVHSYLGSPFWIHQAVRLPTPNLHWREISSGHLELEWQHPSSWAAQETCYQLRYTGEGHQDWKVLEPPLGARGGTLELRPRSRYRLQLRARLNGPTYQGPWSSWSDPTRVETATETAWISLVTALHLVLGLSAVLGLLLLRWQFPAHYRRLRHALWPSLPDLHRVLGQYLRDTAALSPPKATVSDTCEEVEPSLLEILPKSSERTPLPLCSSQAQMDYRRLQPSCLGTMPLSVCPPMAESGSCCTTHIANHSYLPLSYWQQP
Conditions: Cwirla et al., Science 276:1696-1699 (1997); cited from earlier work.

Test [4] has as its target T1, c-mpl. Conditions: Cwirla et al., Science 276:1696-1699 (1997); cited from earlier work. This is another data set of the same source.

In the case of “SAQGIEGPTLRQWLAARALETV [TMP1, reference compound]”, the “Murine 32D Cell Proliferation Assay (relative to TMP1)” value in test [1] is recorded as 100%.
Consider QGCSWGGPTLKQWLQCVRAKHS [TMP23], for which, in test [2], the “Affinity relative to TMP1” value is more than 54. In test [1], the “Murine 32D Cell Proliferation Assay (relative to TMP1)” value was “Not Detectable”.
Take QGCSSGGPTLREWLQCRRMQHS [TMP22]: the “Affinity relative to TMP1” value in test [2] is recorded as more than 54. For the same sequence, in test [1], the “Murine 32D Cell Proliferation Assay (relative to TMP1)” value is “Not Detectable”.
As for IEGPTLRQWLAARA [TPO mimetic peptide], the EC50 in test [3] is 0.4 µM. Further, in test [4], the IC50 was 0.002 µM.
Regarding QGALQEGPTLRQWLGWGQWGHS [TMP19], the “Affinity relative to TMP1” value in test [2] is on record as 0.07. In addition, in test [1], the “Murine 32D Cell Proliferation Assay (relative to TMP1)” value was determined as 27%.

By EC50 is commonly meant the concentration giving half of the maximal effect. As usually defined, the IC50 is the concentration that inhibits the measured activity by half.
